Reference: patent US20230084927A1, “GLUCOSE UPTAKE INHIBITORS AND USES THEREOF” (METABOMED LTD., priority 2019, published 2023)
Like-named read-outs stand apart in the source and are kept apart here.

Columns and labels:
SDH-WT cells = test: Cellular / differential toxicity assay (CellTiter-Glo, 3 days); assay type: cell-based, murine; conditions: toxicity, SDH-WT cells, 3 days, CellTiter-Glo, read-out: EC50 (uM) SDH-WT
Summary of the method: (§1)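 Isogenic SDHB-deficient (HRAS-transformed SDH-KO) and SDH-WT cells grown in DMEM-F12 with 1 mM glutamine and 3% FBS, plated with compound (10-point dilution from 10 uM to 0.0065 uM or lower) for 3 days at 37 °C, 5% CO2. Viability by CellTiter-Glo luminescence; EC50 calculated.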

[1] = test system: SDH-KO-HRAS cells (SDHB-deficient); test: as above; assay type: cell-based, murine; conditions: for EC50: toxicity, SDH-KO cells, 3 days, CellTiter-Glo, read-out: EC50 (uM) SDH-KO-HTAS-C17
Summary of the method: as §1

Row | Compound | EC50 (SDH-WT cells; Mus musculus, 72 h) [µM] | EC50 ([1]; Mus musculus, 72 h) [µM] | EC50 (SDH-WT cells) [µM] | EC50 [1] [µM] | differential toxicity, SDH-KO cells compared to SDH-WT cells ([1]; viability EC50s, 72 hours, Example 6)
1 | CC1(C)Cc2nc3sc4c(NCCc5ccc6ocnc6c5)ncnc4c3cc2CO1 [Compound 175] | 3 to 10 | 1 to 3 |  |  | 
2 | CC1(C)Cc2nc3sc4c(NCCc5ccc(C(=O)O)cc5)ncnc4c3cc2CO1 [Compound 159] | > 10 | > 10 |  |  | 
3 | CC1(C)Cc2nc3sc4c(NCCc5ccc6[nH]c(N)nc6c5)ncnc4c3cc2CO1 [Compound 189] | 1 to 3 | < 1 |  |  | 
4 | CCCN(CCC)c1ncnc2c1sc1nc3c(cc12)COC(C)(C)C3 [Compound 300] | 3 to 10 | 3 to 10 |  |  | 
5 | Cc1nc(N)c2sc3nc4c(cc3c2n1)COC(C)(C)C4 [Compound 237] | > 10 | 3 to 10 |  |  | 
6 | CC1(C)Cc2nc3sc4c(N5CCN(C(c6ccccc6)c6ccccc6)CC5)ncnc4c3cc2CO1 [Compound 286] | > 10 | > 10 |  |  | 
7 | CC1(C)Cc2nc3sc4c(NCCc5ccc6[nH]nnc6c5)ncnc4c3cc2CO1 [Compound 201] | 1 to 3 | < 1 |  |  | 
8 | CNC(=O)c1ccc(CCNc2ncnc3c2sc2nc4c(cc23)COC(C)(C)C4)cc1 [Compound 142] | 3 to 10 | < 1 |  |  | 
9 | COc1ccccc1CCNc1ncnc2c1sc1nc3c(cc12)COC(C)(C)C3 [Compound 128] | 3 to 10 | 3 to 10 |  |  | 
10 | CC1(C)Cc2nc3sc4c(NCC5CCCO5)ncnc4c3cc2CO1 (stereo not shown) [Compound 247] | > 10 | 3 to 10 |  |  | 
11 | Cc1nc(NN)c2sc3nc4c(cc3c2n1)COC(C)(C)C4 [Compound 244] | > 10 | > 10 |  |  | 
12 | CNc1ccc(CCN(C)c2ncnc3c2sc2nc4c(cc23)COC(C)(C)C4)cc1[N+](=O)[O-] [Compound 181] | 3 to 10 | 3 to 10 |  |  | 
13 | CC(C)C(=O)Nc1ccc(CCNc2ncnc3c2sc2nc4c(cc23)COC(C)(C)C4)cc1[N+](=O)[O-] [Compound 199] | 1 to 3 | 1 to 3 |  |  | 
14 | CC1(C)Cc2nc3sc4c(NCCc5ccc(O)cc5)ncnc4c3cc2CO1 [Compound 154] | 3 to 10 | < 1 |  |  | 
15 | CC1(C)Cc2nc3sc4c(NCCc5ccc(-c6ncco6)cc5)ncnc4c3cc2CO1 [Compound 147] | 3 to 10 | < 1 |  |  | 
16 | CC1(C)Cc2nc3sc4c(NCCCO)ncnc4c3cc2CO1 [Compound 238] | > 10 | > 10 |  |  | 
17 | CC1(C)Cc2nc3sc4c(NCCc5ccc(O)c(F)c5)ncnc4c3cc2CO1 [Compound 140] | 3 to 10 | 1 to 3 |  |  | 
18 | C=CCNc1ncnc2c1sc1nc3c(cc12)COC(C)(C)C3 [Compound 296] |  |  | > 10 | 3 to 10 | 
19 | COc1ccc(CCn2cnc3c(sc4nc5c(cc43)COC(C)(C)C5)c2=O)cc1F [Compound 301] | > 10 | > 10 |  |  | 

Row | Compound | EC50 (SDH-WT cells; Mus musculus, 72 h) [µM] | EC50 ([1]; Mus musculus, 72 h) [µM] | EC50 (SDH-WT cells) [µM] | EC50 [1] [µM] | differential toxicity, SDH-KO cells compared to SDH-WT cells ([1]; viability EC50s, 72 hours, Example 6)
20 | CC1(C)Cc2nc3sc4c(NCCc5ccc(-c6cnco6)cc5)ncnc4c3cc2CO1 [Compound 149] | > 10 | > 10 |  |  | 
21 | Cc1nc(NC(C)c2ccccc2)c2sc3nc4c(cc3c2n1)COC(C)(C)C4 (stereo not shown) [Compound 272] | > 10 | > 10 |  |  | 
22 | Cc1nc(NCC(C)C)c2sc3nc4c(cc3c2n1)COC(C)(C)C4 [Compound 220] | > 10 | > 10 |  |  | 
23 | CCC(C)Nc1ncnc2c1sc1nc3c(cc12)COC(C)(C)C3 (stereo not shown) [Compound 299] | > 10 | > 10 |  |  | 
24 | CCCCCCCCCNc1ncnc2c1sc1nc3c(cc12)COC(C)(C)C3 [Compound 249] | > 10 | > 10 |  |  | 
25 | CC1(C)CCc2cc3c(nc2C1)sc1c(CCC2(c4ccccc4)CCCC2)cccc13 [Compound 293] | > 10 | > 10 |  |  | 
26 | CCOC1CCc2nc3sc4c(NCCc5ccc(OC)c(F)c5)ncnc4c3cc2C1 (stereo not shown) [Compound 101] | > 10 | > 10 |  |  | 
27 | c1cnc2sc3c(NCCc4ccc5[nH]cnc5c4)nc(C4CCCC4)nc3c2c1 [Compound 316, N-(2-(1H-Benzo[d]imidazol-5-yl)ethyl)-2-cyclopentylpyrido[3′,2′:4,5]thieno[3,2-d]pyrimidin-4-amine] | 3 to 10 | 3 to 10 |  |  | 
28 | CC1(C)Cc2nc3sc4c(NCCc5ccc(F)c(F)c5)ncnc4c3cc2CO1 [Compound 120] | > 10 | > 10 |  |  | 
29 | COCCOCCOCCNCc1c2c(nc3sc4c(NCCc5ccc6[nH]cnc6c5)ncnc4c13)CC(C)(C)OC2 [Compound 320, N-(2-(1H-Benzo[d]imidazol-5-yl)ethyl)-11-(5,8,11-trioxa-2-azadodecyl)-8,8-dimethyl-7,10-dihydro-8H-pyrano[3″,4″:5′,6′]pyrido[3′,2′:4,5]thieno[3,2-d]pyrimidin-4-amine] | 3 to 10 | 3 to 10 |  |  | 
30 | CC(Cc1ccccc1)Nc1ncnc2c1sc1nc3c(cc12)COC(C)(C)C3 (stereo not shown) [Compound 276] | 3 to 10 | > 10 |  |  | 
31 | CC1(C)Cc2nc3sc4c(NCc5cccnc5)ncnc4c3cc2CO1 [Compound 277] | > 10 | > 10 |  |  | 
32 | COCCOCCOCCN(C)Cc1c2c(nc3sc4c(NCCc5ccc6[nH]cnc6c5)ncnc4c13)CC(C)(C)OC2 [Compound 331, N-(2-(1H-Benzo[d]imidazol-5-yl)ethyl)-8,8-dimethyl-11-(2-methyl-5,8,11-trioxa-2-azadodecyl)-7,10-dihydro-8H-pyrano[3″,4″:5′,6′]pyrido[3′,2′:4,5]thieno[3,2-d]pyrimidin-4-amine] | 3 to 10 | < 1 |  |  | > 42
33 | CC(=O)OCC(=O)Cc1ccc(CCNc2ncnc3c2sc2nc4c(cc23)COC(C)(C)C4)cc1[N+](=O)[O-] [Compound 184] | 3 to 10 | 3 to 10 |  |  | 
34 | CC1(C)Cc2nc3sc4c(NCCc5ccccc5)ncnc4c3cc2CO1 [Compound 260] | > 10 | > 10 |  |  | 
35 | CC1(C)Cc2nc3sc4c(NCCc5ccc6[nH]cnc6c5)ncnc4c3c(C(=O)OCCCCCCCC(=O)O)c2CO1 [Compound 210] | < 1 | 3 to 10 |  |  | 
36 | CCCCN(C)c1nc(C)nc2c1sc1nc3c(cc12)COC(C)(C)C3 [Compound 242] | > 10 | > 10 |  |  | 
37 | CC(=O)OC(C)c1nc2cc(CCNc3ncnc4c3sc3nc5c(cc34)COC(C)(C)C5)ccc2[nH]1 (stereo not shown) [Compound 185] | 3 to 10 | 1 to 3 |  |  | 
38 | CC(=O)OC1CCc2nc3sc4c(NCCc5ccc6[nH]cnc6c5)ncnc4c3cc2C1 (stereo not shown) [Compound 168] | 1 to 3 | < 1 |  |  | 

Row | Compound | EC50 (SDH-WT cells; Mus musculus, 72 h) [µM] | EC50 ([1]; Mus musculus, 72 h) [µM] | EC50 (SDH-WT cells) [µM] | EC50 [1] [µM] | differential toxicity, SDH-KO cells compared to SDH-WT cells ([1]; viability EC50s, 72 hours, Example 6)
39 | CC(C)c1nc(NCCc2ccc3[nH]cnc3c2)c2sc3ncccc3c2n1 [Compound 312, N-(2-(1H-Benzo[d]imidazol-5-yl)ethyl)-2-isopropylpyrido[3′,2′:4,5]thieno[3,2-d]pyrimidin-4-amine] | 3 to 10 | 3 to 10 |  |  | 
40 | CC1(C)Cc2nc3sc4c(N5CCOCC5)ncnc4c3cc2CO1 [Compound 137] | > 10 | > 10 |  |  | 
41 | COc1ccc(CCNc2ncnc3c2sc2nc4c(cc23)COC(C)(C)C4)cc1C(F)(F)F [Compound 161] | 3 to 10 | 3 to 10 |  |  | 
42 | CCCCCCCCNc1ncnc2c1sc1nc3c(cc12)COC(C)(C)C3 [Compound 246] | > 10 | > 10 |  |  | 
43 | CC1(C)Cc2nc3sc4c(NCCc5cncnc5)ncnc4c3cc2CO1 [Compound 123] | > 10 | > 10 |  |  | 
44 | CCN(CC)c1nc(C)nc2c1sc1nc3c(cc12)COC(C)(C)C3 [Compound 253] | > 10 | > 10 |  |  | 
45 | CC1CCC(C)N(c2ncnc3c2sc2nc4c(cc23)COC(C)(C)C4)C1 (stereo not shown) [Compound 236] | > 10 | > 10 |  |  | 
46 | CC(=O)Nc1ccc(CCNc2ncnc3c2sc2nc4c(cc23)COC(C)(C)C4)cc1F [Compound 204] | > 10 | 1 to 3 |  |  | 
47 | Cc1nc(NCCc2ccccc2)c2sc3nc4c(cc3c2n1)COC(C)(C)C4 [Compound 240] | > 10 | 3 to 10 |  |  | 
48 | CC1(C)Cc2nc3sc4c(NCCCN5CCOCC5)ncnc4c3cc2CO1 [Compound 290] | > 10 | > 10 |  |  | 
49 | CC1(C)Cc2nc3sc4c(NCCc5ccc(C(N)=O)cc5)ncnc4c3cc2CO1 [Compound 144] | > 10 | < 1 |  |  | 
50 | CCN(CC)CCNc1ncnc2c1sc1nc3c(cc12)COC(C)(C)C3 [Compound 218] | > 10 | > 10 |  |  | 
51 | c1ccc(-c2nc(NCCc3ccc4[nH]cnc4c3)c3sc4ncccc4c3n2)cc1 [Compound 307, N-(2-(1H-Benzo[d]imidazol-5-yl)ethyl)-2-phenylpyrido[3′,2′:4,5]thieno[3,2-d]pyrimidin-4-amine] | 3 to 10 | > 10 |  |  | 
52 | COc1ccc(CCOc2ncnc3c2sc2nc4c(cc23)COC(C)(C)C4)cc1F [Compound 153] | > 10 | > 10 |  |  | 
53 | CN(C)C(=O)c1ccc(CCNc2ncnc3c2sc2nc4c(cc23)COC(C)(C)C4)cc1 [Compound 150] | > 10 | 1 to 3 |  |  | 
54 | COCCOCCOCCOCCOC(=O)c1c2c(nc3sc4c(NCCc5ccc6[nH]cnc6c5)ncnc4c13)CC(C)(C)OC2 [Compound 164] | 3 to 10 | < 1 |  |  | 
55 | c1cnc2sc3c(NCCc4ccc5[nH]cnc5c4)nc(C4CCCCC4)nc3c2c1 [Compound 310, N-(2-(1H-Benzo[d]imidazol-5-yl)ethyl)-2-cyclohexylpyrido[3′,2′:4,5]thieno[3,2-d]pyrimidin-4-amine] | > 10 | > 10 |  |  | 
56 | CCOC(=O)C1CCc2nc3sc4c(NCCc5ccc(OC)c(F)c5)ncnc4c3cc2C1 (stereo not shown) [Compound 302] | > 10 | > 10 |  |  | 
57 | CC1(C)Cc2nc3sc4c(NCCc5ccc6[nH]cnc6c5)ncnc4c3c(C(=O)OCCCCCCCCCCCCCCCC(=O)O)c2CO1 [Compound 211] | 3 to 10 | 3 to 10 |  |  | 
